Reference: US11407736B2 (priority 2019, dated 2022)
Where two headings read alike, the source gives them in different places.

Tests used:
[1] = molecular target: RIPK1 (Homo sapiens (Human), UniProt Q13546); experiment: RIPK1 ADP-Glo biochemical kinase assay
Protocol: The final reaction volume was 5.0ul.
Adding 5 μl of ADP-Glo™ terminated the reaction.

[2] = test system: L929 cells; experiment: L929 cell necroptosis assay (TNFa + zVAD, CellTiter-Glo); type: cell-based, murine; conditions: Mus musculus, L929, L929 cells, TNFa + zVAD; read-out: L929-CTG-recovery, L929, TNFa + zVAD (IC50)
Summary of the method: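 Murine L929 cells, plated 18 h beforehand at 10K cells/well in RPMI 1640 with 10% FBS, were switched to medium containing 40 uM zVAD-fmk and given compound from 4-fold serial dilutions. Viability after 18 h of TNFa stimulation at 37° C was read by CellTiter-Glo luminescence.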

[3] = test system: U937 cells; experiment: U937 cell necroptosis assay (TNFa + zVAD, CellTiter-Glo); type: cell-based, human; conditions: Homo sapiens, U-937, U937 cells, TNFa + zVAD; read-out: U937 Zvad TNF CTG Recovery, U937, TNFa + zVAD (IC50)
Summary of the method: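 Human U937 and murine L929 cells in RPMI 1640/10% FBS were pre-incubated 1 h at 37 °C with serially diluted compound plus zVAD-fmk (U937 plated with 60 uM, L929 medium with 40 uM), then stimulated with 2 ng/mL TNFa (final). Viability read by CellTiter-Glo luminescence after 18 h.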

[4] = read-out: RIPK1 ADP-Glo Kinase (IC50)

Chain of RIPK1 (Q13546 whole entry, species assumed): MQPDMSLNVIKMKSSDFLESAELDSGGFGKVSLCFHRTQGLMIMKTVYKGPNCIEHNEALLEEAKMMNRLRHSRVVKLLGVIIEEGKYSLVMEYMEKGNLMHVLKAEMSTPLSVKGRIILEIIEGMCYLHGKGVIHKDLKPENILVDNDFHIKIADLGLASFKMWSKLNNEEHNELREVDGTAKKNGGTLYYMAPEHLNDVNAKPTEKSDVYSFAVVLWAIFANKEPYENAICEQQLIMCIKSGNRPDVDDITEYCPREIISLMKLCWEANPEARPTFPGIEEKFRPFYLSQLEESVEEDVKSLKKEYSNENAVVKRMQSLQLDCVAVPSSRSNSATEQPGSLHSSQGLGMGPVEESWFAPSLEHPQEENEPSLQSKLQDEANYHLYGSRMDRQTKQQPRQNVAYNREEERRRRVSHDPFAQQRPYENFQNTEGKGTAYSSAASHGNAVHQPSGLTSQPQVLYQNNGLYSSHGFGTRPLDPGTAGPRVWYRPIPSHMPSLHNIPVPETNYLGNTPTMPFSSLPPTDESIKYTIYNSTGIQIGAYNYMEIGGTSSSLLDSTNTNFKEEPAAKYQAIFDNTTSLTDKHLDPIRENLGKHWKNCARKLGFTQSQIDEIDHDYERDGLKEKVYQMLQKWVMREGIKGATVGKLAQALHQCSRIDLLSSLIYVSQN

| IC50 [1, 4] [nM] | Compound | IC50 [2] [nM] | IC50 [3] [nM] | IC50 [1] [nM] |
| --- | --- | --- | --- | --- |
| 582 | CN1C(=O)[C@@H](NC(=O)c2cc(Oc3cccc(F)c3)ccn2)COc2ccc(C#CC(C)(C)C)cc21 [Compound I-106, (S)—N-(7-(3,3-dimethylbut-1-yn-1-yl)-5-methyl-4-oxo-2,3,4,5-tetrahydrobenzo[b][1,4]oxazepin-3-yl)-4-(3-fluorophenoxy)picolinamide] | 481 | 5.5 |  |
| 314 | CC(C)CCc1ccc2c(c1)N(C)C(=O)[C@@H](NC(=O)c1cc(Oc3ccccc3)ccn1)CO2 [Compound I-108, (S)—N-(7-isopentyl-5-methyl-4-oxo-2,3,4,5-tetrahydrobenzo[b][1,4]oxazepin-3-yl)-4-phenoxypicolinamide] | 2310 | 8.8 |  |
| 21.8 | CN1C(=O)[C@@H](NC(=O)c2cc(Oc3ccc(F)cc3)ccn2)COc2ccc(C#CC3(O)COC3)cc21 [Compound I-111, (S)-4-(4-fluorophenoxy)-N-(7-((3-hydroxyoxetan-3-yl)ethynyl)-5-methyl-4-oxo-2,3,4,5-tetrahydrobenzo[b][1,4]oxazepin-3-yl)picolinamide] | 99.9 | 3.1 |  |
| 15.1 | CN1C(=O)[C@@H](NC(=O)c2cc(Oc3ccccc3F)ccn2)COc2ccc(C#CC3(O)COC3)cc21 [Compound I-112, (S)-4-(2-fluorophenoxy)-N-(7-((3-hydroxyoxetan-3-yl)ethynyl)-5-methyl-4-oxo-2,3,4,5-tetrahydrobenzo[b][1,4]oxazepin-3-yl)picolinamide] | 14.2 | 1.1 |  |
| 31.6 | CN1C(=O)[C@@H](NC(=O)c2cc(Oc3ccccc3)ccn2)COc2ccc(C#CCN3CCOCC3)cc21 [Compound I-117, (S)—N-(5-methyl-7-(3-morpholinoprop-1-yn-1-yl)-4-oxo-2,3,4,5-tetrahydrobenzo[b][1,4]oxazepin-3-yl)-4-phenoxypicolinamide] | 11.2 | 0.2 |  |
| 29.6 | CN1C(=O)[C@@H](NC(=O)c2cc(Oc3ccccc3)ccn2)COc2ccc(C#CC3(O)CCC3)cc21 [Compound I-120, (S)—N-(7-((1-hydroxycyclobutyl)ethynyl)-5-methyl-4-oxo-2,3,4,5-tetrahydrobenzo[b][1,4]oxazepin-3-yl)-4-phenoxypicolinamide] | 61.5 | 0.5 |  |

The remaining lines, values behind:

| Compound | IC50 [1, 4] [nM] | IC50 [2] [nM] | IC50 [3] [nM] | IC50 [1] [nM] |
| --- | --- | --- | --- | --- |
| CN1C(=O)[C@@H](NC(=O)c2cc(Oc3cccc(F)c3)ccn2)COc2ccc(C#CC(C)(C)O)cc21 [Compound I-107, (S)-4-(3-fluorophenoxy)-N-(7-(3-hydroxy-3-methylbut-1-yn-1-yl)-5-methyl-4-oxo-2,3,4,5-tetrahydrobenzo[b][1,4]oxazepin-3-yl)picolinamide] | 23.1 | 161 | 1.3 |  |
| CN1C(=O)[C@@H](NC(=O)c2cc(Oc3ccccc3)ccn2)COc2ccc(C#CC(C)(C)CO)cc21 [Compound I-109, (S)—N-(7-(4-hydroxy-3,3-dimethylbut-1-yn-1-yl)-5-methyl-4-oxo-2,3,4,5-tetrahydrobenzo[b][1,4]oxazepin-3-yl)-4-phenoxypicolinamide] |  | 24.3 | 0.4 | 32.1 |
| CN1C(=O)[C@@H](NC(=O)c2cc(Oc3ccc(F)cc3F)ccn2)COc2ccc(C#CC3(O)COC3)cc21 [Compound I-114, (S)-4-(2,4-difluorophenoxy)-N-(7-((3-hydroxyoxetan-3-yl)ethynyl)-5-methyl-4-oxo-2,3,4,5-tetrahydrobenzo[b][1,4]oxazepin-3-yl)picolinamide] | 20.2 | 90.4 | 4.7 |  |
| CN1C(=O)[C@@H](NC(=O)c2cc(Oc3cccc(F)c3)ccn2)COc2ccc(C#CC3(O)COC3)cc21 [Compound I-115, (S)-4-(3-fluorophenoxy)-N-(7-((3-hydroxyoxetan-3-yl)ethynyl)-5-methyl-4-oxo-2,3,4,5-tetrahydrobenzo[b][1,4]oxazepin-3-yl)picolinamide] | 24 | 49.1 | 0.8 |  |
| CN1C(=O)[C@@H](NC(=O)c2cc(Oc3ccccc3)ccn2)COc2ccc(C#CCN3CCCC3)cc21 [Compound I-116, (S)—N-(5-methyl-4-oxo-7-(3-(pyrolidin-1-yl)prop-1-yn-1-yl)-2,3,4,5-tetrahydrobenzo[b][1,4]oxazepin-3-yl)-4-phenoxypicolinamide] | 23.4 | 136 | 0.7 |  |
| CN1C(=O)[C@@H](NC(=O)c2cc(Oc3c(F)cccc3F)ccn2)COc2ccc(C#CC(C)(C)O)cc21 [Compound I-118, (S)-4-(2,6-difluorophenoxy)-N-(7-(3-hydroxy-3-methylbut-1-yn-1-yl)-5-methyl-4-oxo-2,3,4,5-tetrahydrobenzo[b][1,4]oxazepin-3-yl)picolinamide] | 27.6 | 83 | 1 |  |
| Cc1cc(Oc2ccccc2)cc(C(=O)N[C@H]2COc3ccc(C#CC(C)(C)O)cc3N(C)C2=O)n1 [Compound I-119, (S)—N-(7-(3-hydroxy-3-methylbut-1-yn-1-yl)-5-methyl-4-oxo-2,3,4,5-tetrahydrobenzo[b][1,4]oxazepin-3-yl)-6-methyl-4-phenoxypicolinamide] | 59.8 | 4050 | 14.6 |  |
| CN1C(=O)[C@@H](NC(=O)c2cc(Oc3ccccc3)ccn2)COc2ccc(C#CC3(O)CCOCC3)cc21 [Compound I-123, (S)—N-(7-((4-hydroxytetrahydro-2H-pyran-4-yl)ethynyl)-5-methyl-4-oxo-2,3,4,5-tetrahydrobenzo[b][1,4]oxazepin-3-yl)-4-phenoxypicolinamide] | 35.7 | 53.5 | 0.6 |  |
| Cc1cccc(C)c1Oc1ccnc(C(=O)N[C@H]2COc3ccc(C#CC(C)(C)O)cc3N(C)C2=O)c1 [Compound I-124, (S)-4-(2,6-dimethylphenoxy)-N-(7-(3-hydroxy-3-methylbut-1-yn-1-yl)-5-methyl-4-oxo-2,3,4,5-tetrahydrobenzo[b][1,4]oxazepin-3-yl)picolinamide] | 93.5 | 2120 | 88.7 |  |
| CN1C(=O)[C@@H](NC(=O)c2cc(Cc3ccc(F)cc3)ccn2)COc2ccc(C#CC(C)(C)O)cc21 [Compound I-125, (S)-4-(4-fluorobenzyl)-N-(7-(3-hydroxy-3-methylbut-1-yn-1-yl)-5-methyl-4-oxo-2,3,4,5-tetrahydrobenzo[b][1,4]oxazepin-3-yl)picolinamide] | 26.2 | 116 | 9.8 |  |
| CN1C(=O)[C@@H](NC(=O)c2cc(Cc3ccc(F)cc3)ccn2)COc2ccc(C#CC3(O)COC3)cc21 [Compound I-126, (S)-4-(4-fluorobenzyl)-N-(7-((3-hydroxyoxetan-3-yl)ethynyl)-5-methyl-4-oxo-2,3,4,5-tetrahydrobenzo[b][1,4]oxazepin-3-yl)picolinamide] | 24.6 | 55.3 | 3.5 |  |
| COC1(C#Cc2ccc3c(c2)N(C)C(=O)[C@@H](NC(=O)c2cc(Oc4ccccc4)ccn2)CO3)COC1 [Compound I-128, (S)—N-(7-((3-methoxyoxetan-3-yl)ethynyl)-5-methyl-4-oxo-2,3,4,5-tetrahydrobenzo[b][1,4]oxazepin-3-yl)-4-phenoxypicolinamide] | 19.7 | 42.2 | 0.6 |  |
